Among the data in patent publication US7125990B2, “Imidazolyl derivatives as corticotropin releasing factor inhibitors” (Bristol-Myers Squibb COmpany, priority 2001, dated 2006) are Ki values, retold here.

In this assay the target is T1, CRF1 receptors (Homo sapiens, UniProt P34998).
T1 construct: endogenous in cells; host or cells: IMR-32 cells, transformed with 2.5 µM 5'-bromo-2'-deoxyuridine for 10 days; membrane preparation
T1 sequence (P34998 24-415): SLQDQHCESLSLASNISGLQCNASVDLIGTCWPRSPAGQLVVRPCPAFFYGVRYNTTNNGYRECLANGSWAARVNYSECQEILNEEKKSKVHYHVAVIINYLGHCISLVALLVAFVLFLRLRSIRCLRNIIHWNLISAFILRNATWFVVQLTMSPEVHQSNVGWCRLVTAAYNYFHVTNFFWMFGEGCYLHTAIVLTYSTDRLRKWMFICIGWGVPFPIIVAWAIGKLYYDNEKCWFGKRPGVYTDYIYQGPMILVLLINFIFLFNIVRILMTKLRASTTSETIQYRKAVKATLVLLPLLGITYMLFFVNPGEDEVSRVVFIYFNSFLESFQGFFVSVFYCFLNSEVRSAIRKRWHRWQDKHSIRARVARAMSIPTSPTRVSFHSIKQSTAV
The assay can be described thus: CRF1 receptor radioligand binding assay ([125I]-oCRF competition, IMR-32 cell membranes). Particulars: IMR-32 cell membranes, [125I]-oCRF 100 pM; read-out: Ki (CRF-1R). Here is the method:
CRF1 receptor antagonists, by occupying the same receptors, blocks the accessibility of the receptors to CRF, a hypothalamic factor mediating body's responses to physiological and psychological stress. The following radioligand binding assay examines the ability of the antagonists to bind the CRF1 receptors by assessing their ability to compete with binding of CRF to the receptors in cell membrane.
Tissue culture and membrane preparation. IMR-32 cells were grown at 37° C. in 5% CO2 as a monolayer in medium consisting of MEM supplemented with 10% heat-inactivated fetal bovine serum, 0.1 mM nonessential amino acids, 1 mM sodium pyruvate and 2 mM L-glutamine. […] After transformation, cells were rinsed twice with phosphate-buffered saline, and incubated for 10–15 min. at 4° C. in homogenization buffer consisting of 50 mM Tris (pH 7.2), 10 mM MgCl2 and 2 mM EGTA. Cells were transferred from plates to polypropylene tubes (16×100 mm), homogenized and centrifuged at 32,000×g for 15 min. Pellets were resuspended by homogenization in buffer and centrifuged at 32,000×g for 15 min. Pellets were resuspended in homogenization buffer then stored at −80° C. until needed.
Radioligand binding assays. […] The assay buffer consisted of 50 mM Tris (pH 7.2), 10 mM MgCl2, 0.5% BSA, 0.005% Triton X-100, 10 μg/mL aprotinin and 10 μg/mL leupeptin. Assays were stopped by addition of ice-cold wash buffer (50 mM Tris, pH 7.4 and 0.2% BSA). Filtration over glass fiber filters (Whatman GF/B) previously soaked in 50 mM Tris, pH 7.2 and 1% BSA was carried out using a Brandel cell harvester. Filters were washed with 10 mL of ice-cold wash buffer. Non-specific binding was defined with 10 μM oCRF. IC50 values for oCRF and test compounds were calculated by nonlinear regression using a one-site binding curve (GraphPad Prism).
Turning to `Cc1cc(C)c(N2CCCn3c2nc(C(F)(F)F)c3CN(CCC2CC2)CCC(F)(F)F)c(C)c1` [Example 89, (2-Cyclopropyl-ethyl)-[2-trifluoromethyl-8-(2,4,6-trimethyl-phenyl)-5,6,7,8-tetrahydro-imidazo[1,2-a]pyrimidin-3-ylmethyl]-(3,3,3-trifluoro-propyl)-amine], the Ki was less than 1 µM.
In the case of `CCCN(Cc1c(CC)nc2n(-c3c(C)cc(C)cc3C)c3ncccc3n12)CC1CC1` [Example 247, Cyclopropylmethyl-[2-ethyl-8-(2,4,6-trimethyl-phenyl)-8H-1,3a,7,8-tetraaza-cyclopenta[α]inden-3-ylmethyl]-propyl-amine], the inhibition constant (Ki) was less than 0.1 µM.
As for `Cc1cc(C)c(-n2c3ncccc3n3c(CN(CC4CC4)CC(F)(F)C(F)(F)F)c(C(F)(F)F)nc23)c(C)c1` [Example 212, Cyclopropylmethyl-(2,2,3,3,3-pentafluoro-propyl)-[2-trifluoromethyl-8-(2,4,6-trimethyl-phenyl)-8H-1,3a,7,8-tetraaza-cylopenta[α]inden-3-ylmethyl]-amine], the inhibition constant (Ki) is less than 0.1 µM.
Take `CCCN(CCc1ccccc1)C(=O)c1c(CC)nc2n1CCN2c1c(C)cc(C)cc1Br` [Example 41, 7-(2-Bromo-4,6-dimethyl-phenyl)-2-ethyl-6,7-dihydro-5H-imidazo[1,2-a]imidazole-3-carboxylic acid phenethyl-propyl-amide]: the inhibition constant Ki was less than 1 µM.
In the case of `C=CCN(CC=C)Cc1c(C(F)(F)F)nc2n(-c3c(C)cc(C)cc3C)c(Cl)cn12` [Example 345, Diallyl-[6-chloro-2-trifluoromethyl-7-(2,4,6-trimethyl-phenyl)-7H-imidazo[1,2-a]imidazol-3-ylmethyl]-amine], the Ki is less than 0.01 µM.
As to `CCCCN(CC)Cc1c(C(F)(F)F)nc2n1CCCN2c1c(C)cc(C)cc1C` [Example 70, Butyl-ethyl-[2-trifluoromethyl-8-(2,4,6-trimethyl-phenyl)-5,6,7,8-tetrahydro-imidazo[1,2-a]pyrimidin-3-ylmethyl]-amine], the inhibitory constant (Ki) was less than 1 µM.
In the case of `C=CCN(CCC)C(=O)c1c(CC)nc2n1CCN2c1c(C)cc(C)cc1C` [Example 19, 2-Ethyl-7-(2,4,6-trimethyl-phenyl)-6,7-dihydro-5H-imidazo[1,2-a]imidazole-3-carboxylic acid allyl-propyl-amide], the Ki is less than 1 µM.
`Cc1cc(C)c(-n2c(Cl)cn3c(CN(CC4CCC4)CC(F)(F)F)c(C(F)(F)F)nc23)c(C)c1` [Example 320, [6-Chloro-2-trifluoromethyl-7-(2,4,6-trimethyl-phenyl)-7H-imidazo[1,2-a]imidazol-3-ylmethyl]-cyclobutylmethyl-(2,2,2-trifluoro-ethyl)-amine]: the Ki was less than 0.01 µM.
On to `CCCN(Cc1ccccc1)Cc1c(C(F)(F)F)nc2n(-c3c(C)cc(C)cc3C)c3ncccc3n12` [Example 236, Benzyl-propyl-[2-trifluoromethyl-8-(2,4,6-trimethyl-phenyl)-8H-1,3a,7,8-tetraaza-cyclopenta[α]inden-3-ylmethyl]-amine], for which the inhibitory constant (Ki) was less than 10 µM.
For the compound `Cc1cc(C)c(N2CCCn3c2nc(C(F)(F)F)c3CN(CCC(F)(F)F)Cc2ccccc2)c(C)c1` [Example 86, Benzyl-[2-trifluoromethyl-8-(2,4,6-trimethyl-phenyl)-5,6,7,8-tetrahydro-imidazo[1,2-a]pyrimidin-3-ylmethyl]-(3,3,3-trifluoro-propyl)-amine], the Ki is less than 1 µM.
Next, `CCCN(CCc1ccccc1)Cc1c(C(F)(F)F)nc2n1CCCN2c1c(C)cc(C)cc1Cl` [Example 121, [8-(2-Chloro-4,6-dimethyl-phenyl)-2-trifluoromethyl-5,6,7,8-tetrahydro-imidazo[1,2-a]pyrimidin-3-ylmethyl]-phenethyl-propyl-amine]: less than 1 µM.
`CCCN(CCC)Cc1c(C(F)(F)F)nc2n1CCCN2c1c(C)cc(C)cc1C` [Example 68, Dipropyl-[2-trifluoromethyl-8-(2,4,6-trimethyl-phenyl)-5,6,7,8-tetrahydro-imidazo[1,2-a]pyrimidin-3-ylmethyl]-amine]: the inhibition constant (Ki) was less than 1 µM.
Take `CC(C)c1ccc(-n2c3ccccc3n3c(CN(CCc4ccccc4)CC(F)(F)F)c(C(F)(F)F)nc23)c(Br)c1` [Example 201, [8-(2-Bromo-4-isopropyl-phenyl)-2-trifluoromethyl-8H-1,3a,8-triaza-cyclopenta[α]inden-3-ylmethyl]-phenethyl-(2,2,2-trifluoro-ethyl)-amine]: the Ki is less than 10 µM.
In the case of `CCCN(Cc1c(C(F)(F)F)nc2n(-c3c(C)cc(C)cc3C)c3ccccc3n12)CC(F)(F)F` [Example 159, Propyl-(2,2,2-trifluoro-ethyl)-[2-trifluoromethyl-8-(2,4,6-trimethyl-phenyl)-8H-1,3a,8-triaza-cyclopenta[α]inden-3-ylmethyl]-amine], the Ki is less than 0.1 µM.
On to `CCCN(Cc1c(C)nc2n(-c3c(C)cc(C)cc3C)c3ccccc3n12)CC1CC1` [Example 146, Cyclopropylmethyl-[2-methyl-8-(2,4,6-trimethyl-phenyl)-8H-1,3a,8-triaza-cyclopenta[α]inden-3-ylmethyl]-propyl-amine], for which the Ki is less than 0.1 µM.
Turning to `CCCN(Cc1ccc([N+](=O)[O-])cc1)Cc1c(C(F)(F)F)nc2n(-c3c(C)cc(C)cc3C)c(Cl)cn12` [Example 313, [6-Chloro-2-trifluoromethyl-7-(2,4,6-trimethyl-phenyl)-7H-imidazo[1,2-a]imidazol-3-ylmethyl]-(4-nitro-benzyl)-propyl-amine], the Ki is less than 1 µM.
On to `Cc1cc(C)c(-n2c(Cl)cn3c(CN(C)Cc4ccccc4)c(C(F)(F)F)nc23)c(C)c1` [Example 307, Benzyl-[6-chloro-2-trifluoromethyl-7-(2,4,6-trimethyl-phenyl)-7H-imidazo[1,2-a]imidazol-3-ylmethyl]-methyl-amine], for which the Ki was less than 1 µM.
For the compound `Cc1cc(C)c(-n2c(Cl)cn3c(CN(CCC4CC4)CCC(F)(F)F)c(C(F)(F)F)nc23)c(C)c1` [Example 330, [6-Chloro-2-trifluoromethyl-7-(2,4,6-trimethyl-phenyl)-7H-imidazo[1,2-a]imidazol-3-ylmethyl]-(2-cyclopropyl-ethyl)-(3,3,3-trifluoro-propyl)-amine], the Ki is less than 0.01 µM.
Next, `CCCN(CCC(F)(F)F)Cc1c(C(F)(F)F)nc2n1CCCN2c1c(C)cc(C)cc1C` [Example 78, Propyl-[2-trifluoromethyl-8-(2,4,6-trimethyl-phenyl)-5,6,7,8-tetrahydro-imidazo[1,2-a]pyrimidin-3-ylmethyl]-(3,3,3-trifluoro-propyl)-amine]: less than 1 µM; `Cc1cc(C)c(-n2c3ncccc3n3c(CN(CC4CCC4)CC(F)(F)F)c(C(F)(F)F)nc23)c(C)c1` [Example 216, Cyclobutylmethyl-(2,2,2-trifluoro-ethyl)-[2-trifluoromethyl-8-(2,4,6-trimethyl-phenyl)-8H-1,3a,7,8-tetraaza-cyclopenta[α]inden-3-ylmethyl]-amine]: less than 0.1 µM; `Cc1cc(C)c(N2CCCn3c2nc(C(F)(F)F)c3CN2CCC(c3ccccc3)C2)c(C)c1` (stereo not drawn) [Example 72, 3-(3-Phenyl-pyrrolidin-1-ylmethyl)-2-trifluoromethyl-8-(2,4,6-trimethyl-phenyl)-5,6,7,8-tetrahydro-imidazo[1,2-a]pyrimidine]: less than 1 µM.
Under `Cc1cc(C)c(-n2c(Cl)cn3c(CN(CCC(F)(F)F)Cc4cccc(F)c4)c(C(F)(F)F)nc23)c(C)c1` [Example 343, [6-Chloro-2-trifluoromethyl-7-(2,4,6-trimethyl-phenyl)-7H-imidazo[1,2-a]imidazol-3-ylmethyl]-(3-fluoro-benzyl)-(3,3,3-trifluoro-propyl)-amine] stands less than 0.1 µM; under `CCCN(CCC1CC1)Cc1c(C(F)(F)F)nc2n(-c3c(C)cc(C)cc3C)c3ncccc3n12` [Example 230, (2-Cyclopropyl-ethyl)-propyl-[2-trifluoromethyl-8-(2,4,6-trimethyl-phenyl)-8H-1,3a,7,8-tetraaza-cyclopenta[α]inden-3-ylmethyl]-amine], less than 1 µM.
In the case of `CCCN(Cc1ccccc1)Cc1c(C(F)(F)F)nc2n(-c3ccc(C(C)C)cc3Br)c3ccccc3n12` [Example 209, Benzyl-[8-(2-bromo-4-isopropyl-phenyl)-2-trifluoromethyl-8H-1,3a,8-triaza-cyclopenta[α]inden-3-ylmethyl]-propyl-amine], the Ki is less than 10 µM.
